Measured values from patent publication US10750743B2, “Pyridazinone herbicides” (E.I. DU PONT DE NEMOURS AND COMPANY, priority 2015, dated 2020).

What was measured:
Assay type in all cases: in vivo
[1] = system: barnyardgrass (Echinochloa crus-galli); assay: Test A preemergence, directed soil spray, visual injury rating; settings: 0 is no effect, 100 is complete control
In short: (§1)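 Seeds sown in a loam soil–sand blend received a directed preemergence soil spray of test chemical in a non-phytotoxic solvent mixture with surfactant. Postemergence plants were sprayed at 2 to 10 cm, one- to two-leaf stage. After approximately 10 d in greenhouse, injury was visually rated 0 (no effect) to 100 (complete control) against untreated controls.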

[2] = system: foxtail, giant (giant foxtail, Setaria faberii); assay: as above; settings: 0 is no effect, 100 is complete control
In short: as §1

kochia (Kochia scoparia) [3] = assay: as above; settings: 0 is no effect, 100 is complete control
In short: as §1

[4] = system: pigweed (Amaranthus retroflexus); assay: as above; settings: 0 is no effect, 100 is complete control
In short: as §1

[5] = system: ragweed (common ragweed, Ambrosia elatior); assay: as above; settings: 0 is no effect, 100 is complete control
In short: as §1

[6] = system: ryegrass, It. (Italian ryegrass, Lolium multiflorum); assay: as above; settings: 0 is no effect, 100 is complete control
In short: as §1

[7] = system: barnyardgrass (Echinochloa crus-galli); assay: Test B flooded paddy test, visual rating; settings: Flood, 250 g ai/ha, applied to paddy water, rated after 13 to 15 d
In short: (§2)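 Plants at the 2-leaf stage were flooded to 3 cm above soil, and test compounds were applied directly into the paddy water, which was held at that depth throughout. After 13 to 15 d in a greenhouse, injury was rated visually against untreated controls on a 0–100 scale (0 no effect, 100 complete control).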

[8] = system: ducksalad (Heteranthera limosa); assay: Test B flooded paddy test, visual rating; settings: Flood, 250 g ai/ha, applied to paddy water, rated after 13 to 15 d
In short: as §2

rice (Oryza sativa) = assay: Test B flooded paddy test, visual rating; settings: Flood, 250 g ai/ha, applied to paddy water, rated after 13 to 15 d
In short: as §2

[9] = system: sedge, umbrella (small-flower umbrella sedge, Cyperus difformis); assay: Test B flooded paddy test, visual rating; settings: Flood, 250 g ai/ha, applied to paddy water, rated after 13 to 15 d
In short: as §2

[10] = system: barnyardgrass (Echinochloa crus-galli); assay: Test A postemergence application, visual injury rating; settings: 0 to 100 scale, 0 no effect, 100 complete control
In short: as §1

[11] = system: blackgrass (Alopecurus myosuroides); assay: as above; settings: 0 to 100 scale, 0 no effect, 100 complete control
In short: as §1

corn (Zea mays) = assay: as above; settings: 0 to 100 scale, 0 no effect, 100 complete control
In short: as §1

[12] = system: foxtail, giant (giant foxtail, Setaria faberii); assay: as above; settings: 0 to 100 scale, 0 no effect, 100 complete control
In short: as §1

[13] = system: galium (catchweed bedstraw, Galium aparine); assay: as above; settings: 0 to 100 scale, 0 no effect, 100 complete control
In short: as §1

kochia (Kochia scoparia) [14] = assay: as above; settings: 0 to 100 scale, 0 no effect, 100 complete control
In short: as §1

[15] = system: pigweed (Amaranthus retroflexus); assay: as above; settings: 0 to 100 scale, 0 no effect, 100 complete control
In short: as §1

[16] = system: ragweed (common ragweed, Ambrosia elatior); assay: as above; settings: 0 to 100 scale, 0 no effect, 100 complete control
In short: as §1

[17] = system: ryegrass, It. (Italian ryegrass, Lolium multiflorum); assay: as above; settings: 0 to 100 scale, 0 no effect, 100 complete control
In short: as §1

[18] = system: wheat (Triticum aestivum); assay: as above; settings: 0 to 100 scale, 0 no effect, 100 complete control
In short: as §1

Compound	Plant response rating (0 to 100 scale), Barnyardgrass ([1]; 31 g ai/ha)	Plant response rating (0 to 100 scale), Barnyardgrass ([1]; 125 g ai/ha)	Plant response rating (0 to 100 scale), Foxtail, Giant ([2]; 31 g ai/ha)	Plant response rating (0 to 100 scale), Foxtail, Giant ([2]; 125 g ai/ha)	Plant response rating (0 to 100 scale), Kochia (kochia (Kochia scoparia) [3]; 31 g ai/ha)	Plant response rating (0 to 100 scale), Kochia (kochia (Kochia scoparia) [3]; 125 g ai/ha)	Plant response rating (0 to 100 scale), Pigweed ([4]; 31 g ai/ha)	Plant response rating (0 to 100 scale), Pigweed ([4]; 125 g ai/ha)	Plant response rating (0 to 100 scale), Ragweed ([5]; 31 g ai/ha)	Plant response rating (0 to 100 scale), Ragweed ([5]; 125 g ai/ha)	Plant response rating (0 to 100 scale), Ryegrass, It. ([6]; 31 g ai/ha)	Plant response rating (0 to 100 scale), Ryegrass, It. ([6]; 125 g ai/ha)	Barnyardgrass plant response rating (0 to 100 scale, 0 is no effect, 100 is complete control) [7]	Ducksalad plant response rating (0 to 100 scale, 0 is no effect, 100 is complete control) [8]	Rice plant response rating (0 to 100 scale, 0 is no effect, 100 is complete control) (rice (Oryza sativa))	Sedge, Umbrella plant response rating (0 to 100 scale, 0 is no effect, 100 is complete control) [9]	Barnyardgrass plant response rating ([10]; 31 g ai/ha)	Barnyardgrass plant response rating ([10]; 125 g ai/ha)	Blackgrass plant response rating ([11]; 31 g ai/ha)	Blackgrass plant response rating ([11]; 125 g ai/ha)	also measured
Cc1cc2c(Cl)ccc(-c3c(OC(=O)c4ccccc4)c(C)nn(C)c3=O)c2o1 [Compound 39]	0	0	0	0	0	0	0	0	0	0	10	50	0	50	0	0	0	10	0	20	Corn plant response rating (corn (Zea mays); 31 g ai/ha): 0; Corn plant response rating (corn (Zea mays); 125 g ai/ha): 0; Foxtail, Giant plant response rating ([12]; 31 g ai/ha): 0; Foxtail, Giant plant response rating ([12]; 125 g ai/ha): 10; Galium plant response rating ([13]; 31 g ai/ha): 30; Galium plant response rating ([13]; 125 g ai/ha): 90; Kochia plant response rating (kochia (Kochia scoparia) [14]; 31 g ai/ha): 0; Kochia plant response rating (kochia (Kochia scoparia) [14]; 125 g ai/ha): 0; Pigweed plant response rating ([15]; 31 g ai/ha): 0; Pigweed plant response rating ([15]; 125 g ai/ha): 0; Ragweed plant response rating ([16]; 31 g ai/ha): 0; Ragweed plant response rating ([16]; 125 g ai/ha): 10; Ryegrass, It. plant response rating ([17]; 31 g ai/ha): 20; Ryegrass, It. plant response rating ([17]; 125 g ai/ha): 30; Wheat plant response rating ([18]; 31 g ai/ha): 0; Wheat plant response rating ([18]; 125 g ai/ha): 0
COC(=O)Oc1c(C)nn(C)c(=O)c1-c1ccc(Cl)c2cc(C)oc12 [Compound 40]	0	20	0	20	0	0	0	60	0	50	80	90	0	0	0	0	10	20	0	20	Corn plant response rating (corn (Zea mays); 31 g ai/ha): 0; Corn plant response rating (corn (Zea mays); 125 g ai/ha): 10; Foxtail, Giant plant response rating ([12]; 31 g ai/ha): 10; Foxtail, Giant plant response rating ([12]; 125 g ai/ha): 20; Galium plant response rating ([13]; 31 g ai/ha): 90; Galium plant response rating ([13]; 125 g ai/ha): 100; Kochia plant response rating (kochia (Kochia scoparia) [14]; 31 g ai/ha): 0; Kochia plant response rating (kochia (Kochia scoparia) [14]; 125 g ai/ha): 0; Pigweed plant response rating ([15]; 31 g ai/ha): 20; Pigweed plant response rating ([15]; 125 g ai/ha): 40; Ragweed plant response rating ([16]; 31 g ai/ha): 20; Ragweed plant response rating ([16]; 125 g ai/ha): 40; Ryegrass, It. plant response rating ([17]; 31 g ai/ha): 40; Ryegrass, It. plant response rating ([17]; 125 g ai/ha): 70; Wheat plant response rating ([18]; 31 g ai/ha): 0; Wheat plant response rating ([18]; 125 g ai/ha): 0
CCC(=O)Oc1c(C)nn(C)c(=O)c1-c1ccc(Cl)c2cc(C)oc12 [Compound 41]	0	70	20	80	0	0	0	90	0	70	90	100	20	20	0	75	20	50	20	50	Corn plant response rating (corn (Zea mays); 31 g ai/ha): 0; Corn plant response rating (corn (Zea mays); 125 g ai/ha): 20; Foxtail, Giant plant response rating ([12]; 31 g ai/ha): 20; Foxtail, Giant plant response rating ([12]; 125 g ai/ha): 60; Galium plant response rating ([13]; 31 g ai/ha): 90; Galium plant response rating ([13]; 125 g ai/ha): 100; Kochia plant response rating (kochia (Kochia scoparia) [14]; 31 g ai/ha): 0; Kochia plant response rating (kochia (Kochia scoparia) [14]; 125 g ai/ha): 0; Pigweed plant response rating ([15]; 31 g ai/ha): 40; Pigweed plant response rating ([15]; 125 g ai/ha): 70; Ragweed plant response rating ([16]; 31 g ai/ha): 80; Ragweed plant response rating ([16]; 125 g ai/ha): 80; Ryegrass, It. plant response rating ([17]; 31 g ai/ha): 90; Ryegrass, It. plant response rating ([17]; 125 g ai/ha): 100; Wheat plant response rating ([18]; 31 g ai/ha): 0; Wheat plant response rating ([18]; 125 g ai/ha): 0
